# Patent US9359367B2, “Tetrahydroquinazolinone derivatives as PARP inhibitors” (Lupin Limited, priority 2012, dated 2016)
# Biological target: T1, PARP1 (Homo sapiens, UniProt P09874)
# T1 construct: purchased BPS Bioscience
# Assay: PARP1 Biochemical Assay (BPS Bioscience kit, chemiluminescence)
# Conditions: histone-coated plate, biotinilated NAD+, 25° C. for 60 min, luminescence, read-out: PARP 1 inhibition IC50
# Summary of the method: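 Human PARP1 (25–75 ng/well) with activated DNA was incubated with compound on histone-coated wells. Biotinylated NAD+ was added and the reaction ran 60 min at 25 °C. Ribosylation was detected by streptavidin-HRP chemiluminescence, % inhibition was normalised to enzyme-free and uninhibited controls, and IC50 was fitted from % inhibition versus concentration.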
# T1 sequence (P09874 whole entry): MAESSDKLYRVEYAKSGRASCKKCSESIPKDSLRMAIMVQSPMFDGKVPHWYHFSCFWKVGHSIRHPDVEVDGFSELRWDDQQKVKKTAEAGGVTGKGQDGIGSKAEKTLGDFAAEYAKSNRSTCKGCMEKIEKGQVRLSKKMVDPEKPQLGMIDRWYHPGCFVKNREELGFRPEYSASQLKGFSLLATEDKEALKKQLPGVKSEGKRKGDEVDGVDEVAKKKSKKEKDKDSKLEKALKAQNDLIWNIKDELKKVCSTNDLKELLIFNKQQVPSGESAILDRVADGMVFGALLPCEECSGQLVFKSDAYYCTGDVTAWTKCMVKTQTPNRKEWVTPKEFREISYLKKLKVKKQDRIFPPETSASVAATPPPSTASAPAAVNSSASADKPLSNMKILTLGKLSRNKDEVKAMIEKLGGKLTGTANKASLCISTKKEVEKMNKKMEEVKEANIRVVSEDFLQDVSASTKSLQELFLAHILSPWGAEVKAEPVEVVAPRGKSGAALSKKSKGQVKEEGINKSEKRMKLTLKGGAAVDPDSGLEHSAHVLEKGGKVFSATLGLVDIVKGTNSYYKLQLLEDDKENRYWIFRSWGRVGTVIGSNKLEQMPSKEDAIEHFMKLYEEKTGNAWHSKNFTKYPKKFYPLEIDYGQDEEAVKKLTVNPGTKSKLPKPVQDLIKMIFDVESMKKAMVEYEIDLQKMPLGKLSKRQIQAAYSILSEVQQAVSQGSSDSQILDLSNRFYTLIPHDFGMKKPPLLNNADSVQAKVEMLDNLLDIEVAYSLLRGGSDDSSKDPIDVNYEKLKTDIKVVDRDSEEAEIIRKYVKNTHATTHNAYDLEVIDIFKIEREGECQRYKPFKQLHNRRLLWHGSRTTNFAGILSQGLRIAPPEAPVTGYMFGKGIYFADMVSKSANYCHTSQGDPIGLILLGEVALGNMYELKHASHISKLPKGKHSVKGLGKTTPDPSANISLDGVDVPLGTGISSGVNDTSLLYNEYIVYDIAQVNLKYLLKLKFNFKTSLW
row,IC50,Compound
1,0.001 to 0.5 µM,"O=c1[nH]c(C2=C[C@H](N3CCC(c4ccc(Cl)cc4)CC3)CC2)nc2c1CC1(CC2)CC1 [Compound 56, (R)-2′-(3-(4-(4-chlorophenyl)piperidin-1-yl)cyclopent-1-en-1-yl)-7′,8′-dihydro-3′H-spiro[cyclopropane-1,6′-quinazolin]-4′(5′H)-one]"
2,0.001 to 0.5 µM,"N#Cc1ccc(N2CCN([C@H]3C=C(c4nc5c(c(=O)[nH]4)CC4(CC5)CC4)CC3)CC2)c(F)c1 [Compound 111, (R)-3-fluoro-4-(4-(3-(4′-oxo-4′,5′,7′,8′-tetrahydro-3′H-spiro[cyclopropane-1,6′-quinazolin]-2′-yl)cyclopent-2-en-1-yl)piperazin-1-yl)benzonitrile]"
3,0.001 to 0.5 µM,"O=c1[nH]c(C2=C[C@H](N3CCN(c4ccc(Cl)c(F)c4)CC3)CC2)nc2c1CC1(CC2)CC1 [Compound 86, (R)-2′-(3-(4-(4-chloro-3-fluorophenyl)piperazin-1-yl)cyclopent-1-en-1-yl)-7′,8′-dihydro-3′H-spiro[cyclopropane-1,6′-quinazolin]-4′(5′H)-one]"
4,0.501 to 5 µM,"Cc1nc2ccc(N3CCN([C@H]4C=C(c5nc6c(c(=O)[nH]5)CC5(CC6)CC5)CC4)CC3)cc2s1 [Compound 81, (R)-2′-(3-(4-(2-methylbenzo[d]thiazol-6-yl)piperazin-1-yl)cyclopent-1-en-1-yl)-7′,8′-dihydro-3′H-spiro[cyclopropane-1,6′-quinazolin]-4′(5′H)-one]"
5,5 to 500 µM,"O=c1[nH]c(CCCN2CC3CCC(C2)N3c2ccc(F)cc2)nc2c1CC1(CC2)CC1 [Compound 8, 2′-(3-(8-(4-fluorophenyl)-3,8-diazabicyclo[3.2.1]octan-3-yl)propyl)-7′,8′-dihydro-3′H-spiro[cyclopropane-1,6′-quinazolin]-4′(5′H)-one]"
6,0.001 to 0.5 µM,"O=c1[nH]c(CCCN2CC=C(c3ccc(F)cc3)CC2)nc2c1CC1(CC2)CC1 [Compound 9, 2′-(3-(4-(4-fluorophenyl)-5,6-dihydropyridin-1(2H)-yl)propyl)-7′,8′-dihydro-3′H-spiro[cyclopropane-1,6′-quinazolin]-4′(5′H)-one]"
7,0.001 to 0.5 µM,"O=c1[nH]c(CCCN2CCC(c3ccccc3)CC2)nc2c1CC1(CC2)CC1 [Compound 19, 2′-(3-(4-phenylpiperidin-1-yl)propyl)-7′,8′-dihydro-3′H-spiro[cyclopropane-1,6′-quinazolin]-4′(5′H)-one]"
8,0.501 to 5 µM,"Cc1csc(N2CCN([C@H]3C=C(c4nc5c(c(=O)[nH]4)CC4(CC5)CC4)CC3)CC2)n1 [Compound 102, (R)-2′-(3-(4-(4-methylthiazol-2-yl)piperazin-1-yl)cyclopent-1-en-1-yl)-7′,8′-dihydro-3′H-spiro[cyclopropane-1,6′-quinazolin]-4′(5′H)-one]"
9,0.001 to 0.5 µM,"Cc1c(F)cccc1N1CCN([C@H]2C=C(c3nc4c(c(=O)[nH]3)CC3(CC4)CC3)CC2)CC1 [Compound 108, (R)-2′-(3-(4-(3-fluoro-2-methylphenyl)piperazin-1-yl)cyclopent-1-en-1-yl)-7′,8′-dihydro-3′H-spiro[cyclopropane-1,6′-quinazolin]-4′(5′H)-one]"
10,0.001 to 0.5 µM,"O=c1[nH]c(C2=C[C@H](N3CCN(c4cc(F)cc(F)c4)CC3)CC2)nc2c1CC1(CC2)CC1 [Compound 109, (R)-2′-(3-(4-(3,5-difluorophenyl)piperazin-1-yl)cyclopent-1-en-1-yl)-7′,8′-dihydro-3′H-spiro[cyclopropane-1,6′-quinazolin]-4′(5′H)-one]"
11,0.001 to 0.5 µM,"CNC(=O)c1ccc(N2CCN([C@H]3C=C(c4nc5c(c(=O)[nH]4)CC4(CC5)CC4)CC3)CC2)c(Cl)c1 [Compound 134, (R)-3-chloro-N-methyl-4-(4-(3-(4′-oxo-4′,5′,7′,8′-tetrahydro-3′H-spiro[cyclopropane-1,6′-quinazolin]-2′-yl)cyclopent-2-en-1-yl)piperazin-1-yl)benzamide]"
12,0.001 to 0.5 µM,"O=c1[nH]c(CCCN2CCN(c3ccccc3F)CC2)nc2c1CC1(CC2)CC1 [Compound 28, 2′-(3-(4-(2-fluorophenyl)piperazin-1-yl)propyl)-7′,8′-dihydro-3′H-spiro[cyclopropane-1,6′-quinazolin]-4′(5′H)-one]"
13,0.001 to 0.5 µM,"O=C(NC1CC1)c1ccc(N2CCN(C3C=C(c4nc5c(c(=O)[nH]4)CC4(CC5)CC4)CC3)CC2)cc1 (centres unmarked) [Compound 44, N-cyclopropyl-4-(4-(3-(4′-oxo-4′,5′,7′,8′-tetrahydro-3′H-spiro[cyclopropane-1,6′-quinazolin]-2′-yl)cyclopent-2-en-1-yl)piperazin-1-yl)benzamide]"
14,0.001 to 0.5 µM,"O=c1[nH]c(C2=C[C@@H](N3CCN(c4ccc(Cl)cc4)CC3)CC2)nc2c1CCCC21CC1 [Compound 40, (S)-2′-(3-(4-(4-chlorophenyl)piperazin-1-yl)cyclopent-1-en-1-yl)-6′,7′-dihydro-3′H-spiro[cyclopropane-1,8′-quinazolin]-4′(5′H)-one]"
15,5 to 500 µM,"CC1(C)CC(c2nc3c(c(=O)[nH]2)CC2(CC3)CC2)=C[C@H]1N1CCN(c2ccc(F)cc2)CC1 [Compound 70, (R)-2′-(3-(4-(4-fluorophenyl)piperazin-1-yl)-4,4-dimethylcyclopent-1-en-1-yl)-7′,8′-dihydro-3′H-spiro[cyclopropane-1,6′-quinazolin]-4′(5′H)-one]"
16,5 to 500 µM,"O=c1[nH]c(C2=C[C@H](N3CCN(c4ncccn4)CC3)CC2)nc2c1CC1(CC2)CC1 [Compound 128, (R)-2′-(3-(4-(pyrimidin-2-yl)piperazin-1-yl)cyclopent-1-en-1-yl)-7′,8′-dihydro-3′H-spiro[cyclopropane-1,6′-quinazolin]-4′(5′H)-one]"
17,0.501 to 5 µM,"O=c1[nH]c(C2=C[C@H](N3CCN(c4cc(Cl)ccc4F)CC3)CC2)nc2c1CC1(CC2)CC1 [Compound 138, (R)-2′-(3-(4-(5-chloro-2-fluorophenyl)piperazin-1-yl)cyclopent-1-en-1-yl)-7′,8′-dihydro-3′H-spiro[cyclopropane-1,6′-quinazolin]-4′(5′H)-one]"
18,0.501 to 5 µM,"O=c1[nH]c(C2=C[C@H](N3CCN(c4ccc(F)c(Cl)c4)CC3)CC2)nc2c1CC1(CC2)CC1 [Compound 64, (R)-2′-(3-(4-(3-chloro-4-fluorophenyl)piperazin-1-yl)cyclopent-1-en-1-yl)-7′,8′-dihydro-3′H-spiro[cyclopropane-1,6′-quinazolin]-4′(5′H)-one]"
19,0.501 to 5 µM,"Cc1cc(F)cc(N2CCN([C@H]3C=C(c4nc5c(c(=O)[nH]4)CC4(CC5)CC4)CC3)CC2)c1 [Compound 126, (R)-2′-(3-(4-(3-fluoro-5-methylphenyl)piperazin-1-yl)cyclopent-1-en-1-yl)-7′,8′-dihydro-3′H-spiro[cyclopropane-1,6′-quinazolin]-4′(5′H)-one]"
20,0.501 to 5 µM,"CNC(=O)c1ccnc(N2CCN([C@H]3C=C(c4nc5c(c(=O)[nH]4)CC4(CC5)CC4)CC3)CC2)c1 [Compound 130, (R)—N-methyl-2-(4-(3-(4′-oxo-4′,5′,7′,8′-tetrahydro-3′H-spiro[cyclopropane-1,6′-quinazolin]-2′-yl)cyclopent-2-en-1-yl)piperazin-1-yl)isonicotinamide]"
21,5 to 500 µM,"O=c1[nH]c(CCCN2CC=C(c3ccccc3)CC2)nc2c1CCC1(CC1)C2 [Compound 17, 2′-(3-(4-phenyl-5,6-dihydropyridin-1(2H)-yl)propyl)-5′,6′-dihydro-3′H-spiro[cyclopropane-1,7′-quinazolin]-4′(8′H)-one]"
22,5 to 500 µM,"O=C1CN(c2ccc(F)cc2)CCN1CCCc1nc2c(c(=O)[nH]1)CC1(CC2)CC1 [Compound 33, 2′-(3-(4-(4-fluorophenyl)-2-oxopiperazin-1-yl)propyl)-7′,8′-dihydro-3′H-spiro[cyclopropane-1,6′-quinazolin]-4′(5′H)-one]"
23,0.001 to 0.5 µM,"O=c1[nH]c(CCCN2C3CCC2CN(c2ccc(F)cc2)C3)nc2c1CC1(CC2)CC1 [Compound 7, 2′-(3-(3-(4-fluorophenyl)-3,8-diazabicyclo[3.2.1]octan-8-yl)propyl)-7′,8′-dihydro-3′H-spiro[cyclopropane-1,6′-quinazolin]-4′(5′H)-one]"
24,5 to 500 µM,"O=c1[nH]c(CCCN2CCN(c3ccccn3)CC2)nc2c1CC1(CC2)CC1 [Compound 20, 2′-(3-(4-(pyridin-2-yl)piperazin-1-yl)propyl)-7′,8′-dihydro-3′H-spiro[cyclopropane-1,6′-quinazolin]-4′(5′H)-one]"
25,0.001 to 0.5 µM,"O=c1[nH]c(C2=C[C@H](N3CCN(c4ccc(Cl)cc4Cl)CC3)CC2)nc2c1CC1(CC2)CC1 [Compound 65, (R)-2′-(3-(4-(2,4-dichlorophenyl)piperazin-1-yl)cyclopent-1-en-1-yl)-7′,8′-dihydro-3′H-spiro[cyclopropane-1,6′-quinazolin]-4′(5′H)-one]"
26,0.001 to 0.5 µM,"O=c1[nH]c(C2=C[C@@H](N3CC=C(c4ccc(Cl)cc4)CC3)CC2)nc2c1CC1(CC2)CC1 [Compound 47, (S)-2′-(3-(4-(4-chlorophenyl)-5,6-dihydropyridin-1(2H)-yl)cyclopent-1-en-1-yl)-7′,8′-dihydro-3′H-spiro[cyclopropane-1,6′-quinazolin]-4′(5′H)-one]"
27,5 to 500 µM,"O=C1CN([C@H]2C=C(c3nc4c(c(=O)[nH]3)CC3(CC4)CC3)CC2)CCN1c1ccc(F)cc1 [Compound 45, (R)2′-(3-(4-(4-fluorophenyl)-3-oxopiperazin-1-yl)cyclopent-1-en-1-yl)-7′,8′-dihydro-3′H-spiro[cyclopropane-1,6′-quinazolin]-4′(5′H)-one]"
28,5 to 500 µM,"O=c1[nH]c(C2=C[C@H](N3CCN(c4ccc(Cl)cc4)CC3)CC2)nc2c1CCCC21CC1 [Compound 41, (R)-2′-(3-(4-(4-chlorophenyl)piperazin-1-yl)cyclopent-1-en-1-yl)-6′,7′-dihydro-3′H-spiro[cyclopropane-1,8′-quinazolin]-4′(5′H)-one]"
29,5 to 500 µM,"O=c1[nH]c(CCCN2CCN(c3ccc(F)cc3)CC2)nc2c1C1CCC2C1 (centres unmarked) [Compound 35, 2-(3-(4-(4-fluorophenyl)piperazin-1-yl)propyl)-5,6,7,8-tetrahydro-5,8-methanoquinazolin-4(3H)-one]"
